These results are taken from ChEMBL document CHEMBL2311441.

The target in the experiment is T1, NAD-dependent protein deacetylase sirtuin-1 (Homo sapiens) (UniProt Q96EB6).
T1 sequence (whole entry): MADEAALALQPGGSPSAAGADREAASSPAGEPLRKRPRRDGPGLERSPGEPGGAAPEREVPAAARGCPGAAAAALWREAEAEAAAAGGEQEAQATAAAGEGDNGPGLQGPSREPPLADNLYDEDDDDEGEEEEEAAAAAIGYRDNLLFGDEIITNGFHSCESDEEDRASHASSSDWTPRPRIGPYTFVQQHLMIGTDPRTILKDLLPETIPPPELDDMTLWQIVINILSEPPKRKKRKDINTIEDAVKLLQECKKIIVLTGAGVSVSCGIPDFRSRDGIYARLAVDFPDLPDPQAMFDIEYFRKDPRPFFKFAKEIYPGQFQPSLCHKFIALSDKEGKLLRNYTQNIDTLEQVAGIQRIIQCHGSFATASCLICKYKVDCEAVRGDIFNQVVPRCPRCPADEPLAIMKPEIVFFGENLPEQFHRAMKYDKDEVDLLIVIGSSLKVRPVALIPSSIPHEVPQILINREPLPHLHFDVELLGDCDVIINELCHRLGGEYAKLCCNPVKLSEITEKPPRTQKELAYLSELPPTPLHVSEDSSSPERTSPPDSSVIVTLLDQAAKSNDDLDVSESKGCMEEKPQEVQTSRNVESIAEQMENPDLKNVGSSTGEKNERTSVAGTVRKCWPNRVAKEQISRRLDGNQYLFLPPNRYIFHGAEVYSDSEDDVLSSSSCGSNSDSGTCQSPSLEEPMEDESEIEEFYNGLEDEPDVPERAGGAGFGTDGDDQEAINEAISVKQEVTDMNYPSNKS
The conditions noted are these: Sf9.

Each structure is given as a SMILES string.

As to `NC(=O)[C@@H]1CCCCc2c1[nH]c1ccc(Cl)cc21`, the ΔTm came to 10 °C.
With `NC(=O)[C@@H]1CCCc2c1[nH]c1ccc(Cl)cc21` the figure was 10 °C.
